# Assay results reported in ChEMBL document CHEMBL1201862, “PubChem BioAssay data set” (2004).
#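 In this assay, cells in 96-well plates receive the compound at five concentrations for 48 hours. Endpoints are linearly interpolated between the surrounding concentrations. Here, GI50 denotes the concentration required for 50% inhibition of growth.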 The source made the active and inactive calls. Rule as the data show it: active = GI50 up to about 1.1 µM and inactive = higher.
# Tests used:
# Assay in all cases: NCI anticancer screen, dose series, 48 h
# 786-0 = test system: 786-0
# A498 = test system: A498
# A549 = test system: A549
# ACHN = test system: ACHN
# BT-549 = test system: BT-549
# CCRF-CEM = test system: CCRF-CEM
# COLO 205 = test system: COLO 205
# DU-145 = test system: DU-145
# EKVX = test system: EKVX
# HCT-116 = test system: HCT-116
# HCT-15 = test system: HCT-15
# HL-60 = test system: HL-60
# HOP-62 = test system: HOP-62
# HOP-92 = test system: HOP-92
# HT-29 = test system: HT-29
# Hs-578T = test system: Hs-578T
# IGROV-1 = test system: IGROV-1
# K562 = test system: K562
# KM12 = test system: KM12
# LOX IMVI = test system: LOX IMVI
# M14 = test system: M14
# MCF7 = test system: MCF7
# MDA-MB-231 = test system: MDA-MB-231
# MDA-MB-435 = test system: MDA-MB-435
# MDA-N = test system: MDA-N
# MOLT-4 = test system: MOLT-4
# Malme-3M = test system: Malme-3M
# NCI-H226 = test system: NCI-H226
# NCI-H23 = test system: NCI-H23
# NCI-H460 = test system: NCI-H460
# NCI/ADR-RES = test system: NCI/ADR-RES
# OVCAR-3 = test system: OVCAR-3
# OVCAR-4 = test system: OVCAR-4
# OVCAR-5 = test system: OVCAR-5
# PC-3 = test system: PC-3
# RPMI-8226 = test system: RPMI-8226
# RXF 393 = test system: RXF 393
# SF-268 = test system: SF-268
# SF-539 = test system: SF-539
# SK-MEL-28 = test system: SK-MEL-28
# SK-MEL-2 = test system: SK-MEL-2
# SK-MEL-5 = test system: SK-MEL-5
# SK-OV-3 = test system: SK-OV-3
# SN12C = test system: SN12C
# SNB-19 = test system: SNB-19
# SNB-75 = test system: SNB-75
# SR = test system: SR
# SW-620 = test system: SW-620
# T47D = test system: T47D
# TK-10 = test system: TK-10
# U-251 = test system: U-251
# UACC-257 = test system: UACC-257
# UACC-62 = test system: UACC-62
# UO-31 = test system: UO-31
# CAKI-1 = test system: CAKI-1
# HCC 2998 = test system: HCC 2998
# NCI-H522 = test system: NCI-H522
# OVCAR-8 = test system: OVCAR-8
# SF-295 = test system: SF-295
structure (smiles),measurement,setting,value
Nc1nc(Nc2ccccc2)sc1C(=O)c1ccco1,GI50,786-0,12.7 µM (inactive)
same,GI50,A498,17.8 µM (inactive)
same,GI50,A549,17.1 µM (inactive)
same,GI50,ACHN,19.2 µM (inactive)
same,GI50,BT-549,23.2 µM (inactive)
same,GI50,CCRF-CEM,3.62 µM (inactive)
same,GI50,COLO 205,13.2 µM (inactive)
same,GI50,DU-145,14.7 µM (inactive)
same,GI50,EKVX,15.3 µM (inactive)
same,GI50,HCT-116,12.8 µM (inactive)
same,GI50,HCT-15,12.2 µM
same,GI50,HL-60,14.1 µM (inactive)
same,GI50,HOP-62,27.5 µM (inactive)
same,GI50,HOP-92,35.6 µM (inactive)
same,GI50,HT-29,14.4 µM (inactive)
same,GI50,Hs-578T,13.3 µM (inactive)
same,GI50,IGROV-1,15.6 µM (inactive)
same,GI50,K562,8.55 µM (inactive)
same,GI50,KM12,11 µM (inactive)
same,GI50,LOX IMVI,15.9 µM (inactive)
same,GI50,M14,20.9 µM (inactive)
same,GI50,MCF7,7.74 µM (inactive)
same,GI50,MDA-MB-231,34.7 µM (inactive)
same,GI50,MDA-MB-435,16.4 µM (inactive)
same,GI50,MDA-N,17.2 µM (inactive)
same,GI50,MOLT-4,13 µM (inactive)
same,GI50,Malme-3M,26.9 µM (inactive)
same,GI50,NCI-H226,21.3 µM (inactive)
same,GI50,NCI-H23,14.6 µM (inactive)
same,GI50,NCI-H460,12.8 µM (inactive)
same,GI50,NCI/ADR-RES,23.9 µM (inactive)
same,GI50,OVCAR-3,5.69 µM (inactive)
same,GI50,OVCAR-4,19.9 µM (inactive)
same,GI50,OVCAR-5,34 µM (inactive)
same,GI50,PC-3,22.6 µM (inactive)
same,GI50,RPMI-8226,16.1 µM (inactive)
same,GI50,RXF 393,14.2 µM (inactive)
same,GI50,SF-268,26.7 µM (inactive)
same,GI50,SF-539,15.7 µM (inactive)
same,GI50,SK-MEL-28,32.8 µM (inactive)
same,GI50,SK-MEL-2,15.2 µM (inactive)
same,GI50,SK-MEL-5,11.1 µM (inactive)
same,GI50,SK-OV-3,28.6 µM (inactive)
same,GI50,SN12C,17.7 µM (inactive)
same,GI50,SNB-19,19.9 µM (inactive)
same,GI50,SNB-75,15.1 µM (inactive)
same,GI50,SR,5.97 µM (inactive)
same,GI50,SW-620,21.2 µM (inactive)
same,GI50,T47D,14.9 µM (inactive)
same,GI50,TK-10,14.2 µM (inactive)
same,GI50,U-251,22.7 µM (inactive)
same,GI50,UACC-257,30.8 µM (inactive)
same,GI50,UACC-62,20.8 µM (inactive)
same,GI50,UO-31,12.1 µM (inactive)
COc1c(OC)c(OC)c2c(c1OC)c(=O)c1ccccc1n2C [MELICOPICINE],GI50,786-0,> 100 µM (inactive)
same,GI50,A498,> 100 µM (inactive)
same,GI50,A549,> 100 µM (inactive)
same,GI50,ACHN,> 100 µM (inactive)
same,GI50,BT-549,> 100 µM (inactive)
same,GI50,CAKI-1,> 100 µM (inactive)
same,GI50,CCRF-CEM,> 10 µM (inactive)
same,GI50,COLO 205,> 100 µM (inactive)
same,GI50,DU-145,> 100 µM (inactive)
same,GI50,EKVX,> 100 µM (inactive)
same,GI50,HCC 2998,> 100 µM (inactive)
same,GI50,HCT-116,> 100 µM (inactive)
same,GI50,HCT-15,72.3 µM
same,GI50,HL-60,57.4 µM (inactive)
same,GI50,HOP-62,> 100 µM (inactive)
same,GI50,HOP-92,> 100 µM (inactive)
same,GI50,HT-29,> 100 µM (inactive)
same,GI50,Hs-578T,> 100 µM (inactive)
same,GI50,IGROV-1,> 100 µM (inactive)
same,GI50,K562,> 100 µM (inactive)
same,GI50,KM12,12.9 µM (inactive)
same,GI50,LOX IMVI,> 100 µM (inactive)
same,GI50,M14,> 100 µM (inactive)
same,GI50,MCF7,> 100 µM (inactive)
same,GI50,MDA-MB-231,> 100 µM (inactive)
same,GI50,MDA-MB-435,> 100 µM (inactive)
same,GI50,MDA-N,> 100 µM (inactive)
same,GI50,MOLT-4,51.1 µM (inactive)
same,GI50,NCI-H226,> 100 µM (inactive)
same,GI50,NCI-H23,> 100 µM (inactive)
same,GI50,NCI-H460,> 10 µM (inactive)
same,GI50,NCI-H522,> 100 µM (inactive)
same,GI50,NCI/ADR-RES,73.5 µM (inactive)
same,GI50,OVCAR-3,> 100 µM (inactive)
same,GI50,OVCAR-4,65.6 µM (inactive)
same,GI50,OVCAR-5,> 100 µM (inactive)
same,GI50,OVCAR-8,> 100 µM (inactive)
same,GI50,PC-3,> 100 µM (inactive)
same,GI50,RPMI-8226,> 100 µM (inactive)
same,GI50,SF-268,> 100 µM (inactive)
same,GI50,SF-295,> 100 µM (inactive)
same,GI50,SF-539,> 100 µM (inactive)
same,GI50,SK-MEL-28,> 100 µM (inactive)
same,GI50,SK-MEL-2,> 100 µM (inactive)
same,GI50,SK-MEL-5,> 100 µM (inactive)
same,GI50,SK-OV-3,> 100 µM (inactive)
same,GI50,SN12C,> 100 µM (inactive)
same,GI50,SNB-19,> 100 µM (inactive)
same,GI50,SNB-75,> 100 µM (inactive)
same,GI50,SR,6.65 µM (inactive)
same,GI50,SW-620,> 100 µM (inactive)
same,GI50,T47D,54.3 µM (inactive)
same,GI50,TK-10,> 100 µM (inactive)
same,GI50,U-251,> 100 µM (inactive)
same,GI50,UACC-257,> 100 µM (inactive)
same,GI50,UACC-62,> 100 µM (inactive)
same,GI50,UO-31,> 100 µM (inactive)
CCCCOc1ccc2c(c1)CC[C@@H]1[C@@H]2CC[C@]2(C)C(=O)N(CCCC)C(=O)C[C@@H]12,GI50,A498,> 100 µM (inactive)
same,GI50,BT-549,87.9 µM (inactive)
same,GI50,CAKI-1,> 100 µM (inactive)
same,GI50,CCRF-CEM,44.6 µM (inactive)
same,GI50,COLO 205,91.8 µM (inactive)
same,GI50,DU-145,> 100 µM (inactive)
same,GI50,HCC 2998,> 100 µM (inactive)
same,GI50,HCT-116,> 100 µM (inactive)
same,GI50,HCT-15,> 100 µM
same,GI50,HL-60,44.4 µM (inactive)
same,GI50,HOP-62,> 100 µM (inactive)
same,GI50,HOP-92,> 100 µM (inactive)
same,GI50,HT-29,> 100 µM (inactive)
same,GI50,Hs-578T,> 100 µM (inactive)
same,GI50,IGROV-1,> 100 µM (inactive)
same,GI50,K562,6.37 µM (inactive)
same,GI50,KM12,> 100 µM (inactive)
same,GI50,M14,> 100 µM (inactive)
same,GI50,MCF7,> 100 µM (inactive)
same,GI50,MDA-MB-231,> 100 µM (inactive)
same,GI50,MDA-MB-435,> 100 µM (inactive)
same,GI50,MDA-N,> 100 µM (inactive)
same,GI50,MOLT-4,30.4 µM (inactive)
same,GI50,Malme-3M,> 100 µM (inactive)
same,GI50,NCI-H226,> 100 µM (inactive)
same,GI50,NCI-H23,> 100 µM (inactive)
same,GI50,NCI-H460,> 100 µM (inactive)
same,GI50,NCI-H522,> 100 µM (inactive)
same,GI50,NCI/ADR-RES,> 100 µM (inactive)
same,GI50,OVCAR-3,> 100 µM (inactive)
same,GI50,OVCAR-5,> 100 µM (inactive)
same,GI50,OVCAR-8,> 100 µM (inactive)
same,GI50,PC-3,25.1 µM (inactive)
same,GI50,RPMI-8226,65.9 µM (inactive)
same,GI50,SF-295,> 100 µM (inactive)
same,GI50,SK-MEL-2,> 100 µM (inactive)
same,GI50,SK-MEL-5,26.3 µM (inactive)
same,GI50,SK-OV-3,> 100 µM (inactive)
same,GI50,SN12C,> 100 µM (inactive)
same,GI50,SNB-19,> 100 µM (inactive)
same,GI50,SNB-75,> 100 µM (inactive)
same,GI50,SR,> 100 µM (inactive)
same,GI50,T47D,> 100 µM (inactive)
same,GI50,U-251,> 100 µM (inactive)
same,GI50,UACC-62,> 100 µM (inactive)
same,GI50,UO-31,> 100 µM (inactive)
